Test results taken from patent publication US11932645B2, “Substituted pyrazolo[1,5-a]pyrimidines and their use in the treatment of medical disorders” (Bial—R&D Investments, S.A., priority 2014, dated 2024).

target: T1, glucocerebrosidase (Gcase) (Homo sapiens, UniProt P04062); test: Glucocerebrosidase (Gcase) activation assay, 4-methylumbelliferyl-beta-D-glucopyranoside substrate, with saposin C; assay type: biochemical; conditions: 0.1 μM test compound; 10 nM GCase, 100 nM saposin C, pH 4.7
T1 sequence (P04062 40-536): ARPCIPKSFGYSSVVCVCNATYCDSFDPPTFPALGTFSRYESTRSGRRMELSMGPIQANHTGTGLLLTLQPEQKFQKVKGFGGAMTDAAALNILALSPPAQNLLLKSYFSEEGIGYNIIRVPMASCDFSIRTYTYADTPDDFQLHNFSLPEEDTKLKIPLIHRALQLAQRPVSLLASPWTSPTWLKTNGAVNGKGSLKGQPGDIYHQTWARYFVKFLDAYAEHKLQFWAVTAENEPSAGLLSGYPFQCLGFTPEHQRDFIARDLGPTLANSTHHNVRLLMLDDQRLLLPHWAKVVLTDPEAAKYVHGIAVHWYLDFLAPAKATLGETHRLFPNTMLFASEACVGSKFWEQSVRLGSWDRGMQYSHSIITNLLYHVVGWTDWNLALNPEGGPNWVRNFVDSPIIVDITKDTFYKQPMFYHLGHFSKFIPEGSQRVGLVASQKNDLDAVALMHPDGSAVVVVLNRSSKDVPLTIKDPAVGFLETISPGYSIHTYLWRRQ
Procedure: The ability of exemplary compounds to activate glucocerebrosidase (Gcase) was measured.
A 484 μL aliquot of a 1.0 mg/mL solution of phosphatidylserine (PS) (Sigma P7769) in chloroform was evaporated under a stream of nitrogen for 1 hour. The lipid film was dissolved over 4 minutes of vigorous vortexing in 40 mL of 176 mM K2HPO4/50 mM citric acid (pH 4.7) containing 7.5 μL of triton X-100, resulting in a mixed micellar preparation with a composition of 0.32 mM triton and 0.37 mol % PS. 4-Methylumbelliferyl-beta-D-glucopyranoside (ACROS-337025000) was dissolved in the micellar solution to a final concentration of 2 mM for use as the reaction substrate.
Test compounds were diluted to the desired concentrations with dimethylsulfoxide (DMSO) from 10 mM stocks, and 0.41 μL of the DMSO compound mixture was added to 100 μL of micellar solution containing 10 nM GCase and 100 nM saposin C (Enzo ALX-201-262-C050). Pre-incubation was allowed to occur for 30 minutes at room temperature, after which the reaction was initiated by combining 25 μL of substrate solution with 25 μL of compound/GCase/saposin mixture. The reaction proceeded for 15 minutes at room temperature and was stopped by adding 150 μL of 1M glycine, pH 12.5. The endpoint of the reaction was monitored by measuring fluorescence intensity (excitation: 365 nm; emission: 440 nm) on a SpectraMax i3 instrument (Molecular Devices). Test compounds were screened at 1.0 and 0.1 μM final concentration, and subsequent 8-point dose response curves were obtained using 3-fold dilutions from a maximum final concentration of 5 μM.
For experiments in which the test compound was used at a concentration of 1.0 μM, the symbol “+” indicates less than 30% Gcase activation; the symbol “++” indicates Gcase activation in the range of 30% up to 60%; and the symbol “+++” indicates Gcase activation greater than 60%. For experiments in which the test compound was used at a concentration of 0.1 μM, the symbol “*” indicates less than 10% Gcase activation; the symbol “**” indicates Gcase activation in the range of 10% up to 20%; and the symbol “***” indicates greater than 20% Gcase activation.

Percent Gcase Activation 0.1 μM Test Compound	Compound
* (less than 10% Gcase activation)	Cc1cc(C)n2ncc(C(=O)Nc3ccc(CCC(=O)O)cc3)c2n1 [III-36]
* (less than 10% Gcase activation)	Cc1cc(C)n2ncc(C(=O)Nc3ccc4cn[nH]c4c3)c2n1 [III-42]
* (less than 10% Gcase activation)	Cc1cc(C)n2ncc(C(=O)Nc3ccc(N4CCCCC4)cc3)c2n1 [IV-3]
* (less than 10% Gcase activation)	COc1ccccc1[C@@H](C)NC(=O)c1cnn2c(C)cc(C)nc12 [III-62]
* (less than 10% Gcase activation)	Cc1cc(C)n2ncc(CNc3ccc(-c4cocn4)cc3)c2n1 [III-37]
* (less than 10% Gcase activation)	Cc1cc(C)n2ncc(C(=O)Nc3ccc(C#CCN(C)C)cc3)c2n1 [IV-2]
* (less than 10% Gcase activation)	Cc1cc(C)n2ncc(C(=O)Nc3ccc4c(c3)CCNC4)c2n1 [III-46]

More lines, now with the values behind:

Compound	Percent Gcase Activation 0.1 μM Test Compound
C#Cc1ccc(NC(=O)c2cnn3c(C)cc(C)nc23)cn1 [III-2]	* (less than 10% Gcase activation)
Cc1cc(C)n2ncc(C(=O)Nc3ccc(-c4ncc[nH]4)cc3)c2n1 [III-30]	* (less than 10% Gcase activation)
Cc1cc(C)n2ncc(C(=O)Nc3ccc(Oc4ccccc4)cc3)c2n1 [III-5]	*** (greater than 20% Gcase activation)
COc1ccccc1[C@H](C)NC(=O)c1cnn2c(C)cc(C)nc12 [III-61]	** (Gcase activation in the range of 10% up to 20%)
Cc1cc(C)n2ncc(C(=O)Nc3ccc(-c4cnn(C)c4)nc3)c2n1 [III-23]	* (less than 10% Gcase activation)
Cc1cc(C)n2ncc(C(=O)Nc3ccc(-c4nccs4)cc3)c2n1 [III-7]	** (Gcase activation in the range of 10% up to 20%)
Cc1cc(C)n2ncc(C(=O)Nc3ccc(-c4cocn4)nc3)c2n1 [III-19]	* (less than 10% Gcase activation)
Cc1cc(Cl)n2ncc(C(=O)NC(C)(C)c3ccc(Cl)cc3)c2n1 [III-68]	** (Gcase activation in the range of 10% up to 20%)
C#C[C@H]1CC[C@@H](NC(=O)c2cnn3c(C)cc(C)nc23)CC1 [III-15]	* (less than 10% Gcase activation)
C#Cc1ccc(NC(=O)c2cnn3c(NC)cc(C)nc23)cc1 [III-78]	** (Gcase activation in the range of 10% up to 20%)
Cc1cc(C)n2ncc(C(=O)Nc3cc(-c4ccccc4)on3)c2n1 [III-12]	* (less than 10% Gcase activation)

same assay, conditions: 1.0 μM test compound; 10 nM GCase, 100 nM saposin C, pH 4.7

Percent Gcase Activation 1 μM Test Compound	Compound
+ (less than 30% Gcase activation)	Cc1cc(C)n2ncc(C(=O)Nc3ccc(CCC(=O)O)cc3)c2n1 [III-36]
+ (less than 30% Gcase activation)	Cc1cc(C)n2ncc(C(=O)Nc3ccc4cn[nH]c4c3)c2n1 [III-42]
+++ (Gcase activation greater than 60%)	COc1ccccc1[C@H](C)NC(=O)c1cnn2c(C)cc(C)nc12 [III-61]
+ (less than 30% Gcase activation)	Cc1cc(C)n2ncc(C(=O)Nc3ccc(N4CCCCC4)cc3)c2n1 [IV-3]
+++ (Gcase activation greater than 60%)	COc1ccccc1[C@@H](C)NC(=O)c1cnn2c(C)cc(C)nc12 [III-62]
+++ (Gcase activation greater than 60%)	Cc1cc(Cl)n2ncc(C(=O)NC(C)(C)c3ccc(Cl)cc3)c2n1 [III-68]
+ (less than 30% Gcase activation)	Cc1cc(C)n2ncc(CNc3ccc(-c4cocn4)cc3)c2n1 [III-37]
+ (less than 30% Gcase activation)	C#Cc1ccc(NC(=O)c2cnn3c(NC)cc(C)nc23)cc1 [III-78]
+ (less than 30% Gcase activation)	Cc1cc(C)n2ncc(C(=O)Nc3ccc(C#CCN(C)C)cc3)c2n1 [IV-2]
+ (less than 30% Gcase activation)	Cc1cc(C)n2ncc(C(=O)Nc3ccc4c(c3)CCNC4)c2n1 [III-46]

Further lines, the compound ahead of its results:

Compound	Percent Gcase Activation 1 μM Test Compound
C#Cc1ccc(NC(=O)c2cnn3c(C)cc(C)nc23)cn1 [III-2]	+ (less than 30% Gcase activation)
Cc1cc(C)n2ncc(C(=O)Nc3ccc(-c4ncc[nH]4)cc3)c2n1 [III-30]	+ (less than 30% Gcase activation)
Cc1cc(C)n2ncc(C(=O)Nc3ccc(Oc4ccccc4)cc3)c2n1 [III-5]	++ (Gcase activation in the range of 30% up to 60%)
Cc1cc(C)n2ncc(C(=O)Nc3ccc(-c4cnn(C)c4)nc3)c2n1 [III-23]	+ (less than 30% Gcase activation)
Cc1cc(C)n2ncc(C(=O)Nc3ccc(-c4nccs4)cc3)c2n1 [III-7]	+++ (Gcase activation greater than 60%)
Cc1cc(C)n2ncc(C(=O)Nc3ccc(-c4cocn4)nc3)c2n1 [III-19]	+ (less than 30% Gcase activation)
C#C[C@H]1CC[C@@H](NC(=O)c2cnn3c(C)cc(C)nc23)CC1 [III-15]	+ (less than 30% Gcase activation)
Cc1cc(C)n2ncc(C(=O)Nc3cc(-c4ccccc4)on3)c2n1 [III-12]	+ (less than 30% Gcase activation)
